Reference: US10253002B2, “Compounds and methods of treating infections” (Neoculi Pty Ltd., priority 2013, dated 2019)
“And” between values parts separate entries of the source, which are not always exact repeats. Equal entries are not always repeated.

Legend:
S. pneumoniae isolates = assay: Disk diffusion susceptibility (CLSI/EUCAST), Example 5; format: cell-based, Streptococcus pneumoniae
Method in brief: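 Susceptibility to 12 antimicrobials was categorised (S/I/R) using CLSI breakpoints from zones of complete inhibition, read thrice to the nearest millimetre with the mode taken. Incubation was 16–24 h, 37 °C, 5% CO2.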

[1] = Precipitation of NCL812 in assay media, Examples 2 and 3; format: physicochemical
S. pneumoniae strain D39 = assay: Macro-broth dilution time kill studies; format: cell-based, Streptococcus pneumoniae
Method: Bacterial suspensions and working antibiotic stocks were prepared as described above. [For preparing macro-broth dilutions, 20 mL tubes were filled each with 9 mL of 4% LHB:CAMHB. 9 mL of a working antimicrobial stock was diluted 1:2 when added to one of the tubes, and then serial diluted down from a high to low concentration of antimicrobial. 1 mL of S. pneumoniae bacterial suspension was added to the appropriate tubes, including the positive control. […] At every 2-3 h during the first 12 h of growth and then at 24 h and 48 h, 50 μL of each bacterial suspension was spread plated onto HBA and incubated at 37° C. with 5% CO2 for 16-24 h.]
Table 17 below indicates the concentrations used for each antimicrobial. Cultures were incubated at 37° C. in 5% CO2 with gentle manual tilting every 10 min for the first 12 h. Viable counts from 50 μL aliquots of each concentration were read following incubation at 37° C. in 5% CO2 for 24 h. The pH of each sample was measured at specific time points using pH indicator strips. Confluent growth was defined when more than 1000 colonies were counted per plate. A bactericidal effect was defined as a 1000 fold reduction (99.9%) of the original cell suspension determined at 24 h for each concentration.

[2] = tested on: non-VRE Enterococcus faecalis USA01; assay: MBC (CLSI methodology), Example 8; format: cell-based; settings: for NCL812 MBC test, growth on Sheep Blood Agar / Number of Bacteria Growing after 24 hours per ml of sample: E. faecalis (USA01)
MRSA = assay: Kill kinetics assay, Example 7; format: cell-based, Staphylococcus aureus
Method: MRSA/VRE were grown overnight on Columbia SBA at 37° C. A few colonies of bacteria were then suspended in CAMHB and adjusted to an optical density of 0.08 to 0.10. The bacterial suspension was diluted 1:10. […] The tubes were incubated at 37° C. In order to determine the number of viable bacteria present at various time points, a 100 μL aliquot was removed from each tube and diluted in normal saline. Then, 100 μL of each dilution was spread onto colony count agar, in duplicate, and incubated for 48 h at 37° C. After 24 h the numbers of colonies present on each plate were counted and therefore the number of viable bacteria present in the original suspension enumerated. Plates were re-checked after 48 hours.

[3] = tested on: methicillin-susceptible S. aureus ATCC 49775; assay: Time-kill assays (microdilution and 10 ml macrodilution), Example 4; format: cell-based, Staphylococcus aureus
Method: Bactericidal activity in macrodilution assays was identified as a 3 log10 decrease from the initial inoculum size. Bacteria were cultured overnight at 37° C. on SBA. Colonies were suspended in broth and the turbidity was adjusted to a 0.5 McFarland standard to obtain a bacterial suspension of […]. Bacterial suspensions were incubated at 37° C. with shaking. Aliquots were removed at 0, 1, 2, 4, 8, 12, and 24 h after antimicrobial addition, diluted, plated onto SBA and incubated for 48 h at 37° C. for viable count determination. Turbidimetric growth curves for S. aureus were obtained for Microtiter plate assays by monitoring optical density changes using a Bio-Rad Benchmark Plus microplate spectrophotometer at 600 nm. Optical densities were measured at 0, 1, 2, 4, 8, 12, and 24 h after antimicrobial addition.

[4] = tested on: non-MRSA S. aureus MK01 and KC01; assay: MBC (CLSI methodology), Example 8; format: cell-based, Staphylococcus aureus

With CC1(C)S[C@@H]2[C@H](NC(=O)[C@H](N)c3ccccc3)C(=O)N2[C@H]1C(=O)O [Ampicillin] the “disk diffusion zone diameter” value (S. pneumoniae isolates; A66.1) was 37 mm, the “disk diffusion zone diameter” value (S. pneumoniae isolates; D39) was 37 mm and the “disk diffusion zone diameter” value (S. pneumoniae isolates; EF3030) was 38 mm. The “disk diffusion zone diameter” value (S. pneumoniae isolates; L82016) was 41 mm, the “disk diffusion zone diameter” value (S. pneumoniae isolates; P9) was 33 mm and the “disk diffusion zone diameter” value (S. pneumoniae isolates; P21) was 40 mm. For the same compound, the “disk diffusion zone diameter” value (S. pneumoniae isolates; TIGR4) was 37 mm, the “disk diffusion zone diameter” value (S. pneumoniae isolates; WCH16) was 41 mm and the “disk diffusion zone diameter” value (S. pneumoniae isolates; WCH43) was 36 mm. The “disk diffusion zone diameter” value (S. pneumoniae isolates; WCH46) was 37 mm, the “disk diffusion zone diameter” value (S. pneumoniae isolates; WCH57) was 43 mm and the “disk diffusion zone diameter” value (S. pneumoniae isolates; WCH77) was 43 mm. For the same compound, the “disk diffusion zone diameter” value (S. pneumoniae isolates; WCH86) was 38 mm, the “disk diffusion zone diameter” value (S. pneumoniae isolates; WCH89) was 38 mm and the “disk diffusion zone diameter” value (S. pneumoniae isolates; WCH92) was 38 mm. For the same compound, the “disk diffusion zone diameter” value (S. pneumoniae isolates; WCH137) was 40 mm, the “disk diffusion zone diameter” value (S. pneumoniae isolates; WCH158) was 42 mm and the “disk diffusion zone diameter” value (S. pneumoniae isolates; WCH184) was 33 mm. The “disk diffusion zone diameter” value (S. pneumoniae isolates; WCH211) was 39 mm, the “disk diffusion zone diameter” value (S. pneumoniae isolates; WU2) was 38 mm and the “Resistance status to Ampicillin” value (S. pneumoniae isolates; isolate A66.1) was “Sensitive”. The “Resistance status to Ampicillin” value (S. pneumoniae isolates; isolate D39) was “Sensitive”, the “Resistance status to Ampicillin” value (S. pneumoniae isolates; isolate P21) was “Sensitive” and the “Resistance status to Ampicillin” value (S. pneumoniae isolates; isolate WCH57) was “Sensitive”. The “Resistance status to Ampicillin” value (S. pneumoniae isolates; isolate WCH158) was “Sensitive” and the “Resistance status to Ampicillin” value (S. pneumoniae isolates; isolate WU-2) was “Sensitive”.
For N=C(N/N=C/c1ccc(Cl)cc1)N/N=C/c1ccc(Cl)cc1 [NCL812, 1,3-bis[(E)-(4-chlorophenyl)methyleneamino]guanidine], the “Precipitation of NCL812 observed at” value ([1]; MIC plates prepared identically without inoculum, MHB II) was no less than 8 µg/mL, the precipitation observed at ([1]; Mueller Hinton broth II, DNA and RNA synthesis assays) was 4 to 8 fold the MIC and the “growth in viable counts” value (S. pneumoniae strain D39; 2 μg/mL NCL812) was “Consistent confluent growth”. The “time post-exposure at which compound appeared to be inactivated (increased growth after)” value (S. pneumoniae strain D39; NCL812 at 4 μg/mL and 8 μg/mL) was 11 h, the “time to eliminate bacterial growth” value (S. pneumoniae strain D39; between 16 μg/mL and 64 μg/mL NCL812) was no more than 8 h and the “NCL812 MBC test, growth on Sheep Blood Agar” value (shortened to “NCL812 MBC test, growth”) ([2]; 4 μg/ml) was “+”. For the same compound, the “Number of Bacteria Growing after 24 hours per ml of sample” value (“Number … per ml of sample” for short) ([2]; 4 μg/ml) was 488 CFU/ml, the “NCL812 MBC test, growth” value ([2]; 8 μg/ml) was “+” and the “NCL812 MBC test, growth” value ([2]; 16 μg/ml) was “+”. For the same compound, the “NCL812 MBC test, growth” value ([2]; 32 μg/ml) was “+”, the “Number … per ml of sample” value ([2]; 32 μg/ml) was 7 CFU/ml and the “NCL812 MBC test, growth” value ([2]; 64 μg/ml) was “+”. The “Number … per ml of sample” value ([2]; 64 μg/ml) was 1 CFU/ml, the “NCL812 MBC test, growth” value ([2]; […]) was “+” and the MBC test outcome ([2]; E. faecalis USA01) was “growth of bacteria was observed at all concentrations of NCL812 tested”. For the same compound, the “numbers of bacteria versus control” value (MRSA; after 24 h, all NCL812 concentrations) was “not significantly different to the control”, the “reduction in comparison to the growth control” value (MRSA; at 4 h) was “at least 2.5 log10 CFU/mL” and the “difference between the control and bacteria exposed to NCL812” value (MRSA; at 8 h) was no less than 3.5 log10 CFU/mL. For the same compound, the “bacterial growth, turbidimetric growth curve” value ([3]; ATCC 49775, 1× and 4× the MIC, microdilution, up to 24 h) was “no visible bacterial growth”, the “remained bactericidal until (then regrowth)” value ([3]; ATCC 49775, 10 mL macrodilution, 1× and 4× the MIC) was 8 to 12 h and the “bacterial regrowth observed at, after antimicrobial addition” value ([3]; ATCC 49775 time-kill) was 12 h. The “NCL812 MBC test, growth” value ([4]; S. aureus (KC01), 2 μg/ml) was “+”, the “NCL812 MBC test, growth” value ([4]; S. aureus (KC01), 4 μg/ml) was “+ and 0” and the “NCL812 MBC test, growth” value ([4]; S. aureus (KC01), 8 μg/ml) was “+ and 0”. For the same compound, the “NCL812 MBC test, growth” value ([4]; S. aureus (KC01), 16 μg/ml) was 0, the “NCL812 MBC test, growth” value ([4]; S. aureus (KC01), 32 μg/ml) was 0 and the “NCL812 MBC test, growth” value ([4]; S. aureus (KC01), 64 μg/ml) was 0. For the same compound, the “NCL812 MBC test, growth” value ([4]; S. aureus (KC01), […]) was 0, the “NCL812 MBC test, growth” value ([4]; S. aureus (MK01), 2 μg/ml) was 0 and the “Number … per ml of sample” value ([4]; S. aureus (MK01), 2 μg/ml) was 5 CFU/ml. The “NCL812 MBC test, growth” value ([4]; S. aureus (MK01), 4 μg/ml) was 0, the “NCL812 MBC test, growth” value ([4]; S. aureus (MK01), 8 μg/ml) was 0 and the “NCL812 MBC test, growth” value ([4]; S. aureus (MK01), 16 μg/ml) was 0 (N) and 0. The “NCL812 MBC test, growth” value ([4]; S. aureus (MK01), 32 μg/ml) was 0 (N) and 0, the “NCL812 MBC test, growth” value ([4]; S. aureus (MK01), 64 μg/ml) was 0 (N) and 0 and the MBC test outcome ([4]; S. aureus MK01 and KC01, no growth, or growth only at 2 μg/ml) was “bactericidal”.
